{"source": "patent US7235556B2", "about": "“Methods of treating dry eye disorders” (Alcon, Inc., priority 2003, dated 2007)", "origin": "cited, not measured here", "test_system": "allergic dermal inflammation", "conditions": "guinea pig model of eczema; reported in the background section"}
{"smiles": "CC(C)(C(=O)O)c1cn2nc(NCCCN3CCC(OC(c4ccccc4)c4ccccc4)CC3)ccc2n1.O.O", "note": "[TAK-427, 2-[6-[[3-[4-(diphenylmethoxy)piperidino]propyl]amino]imidazo[1,2-b]pyridazin-2-yl]2-methylpropionic acid dihydrate]", "values": [{"measurement": "inhibition of allergic dermal inflammation", "result": "inhibit allergic dermal inflammation"}]}
